Measured values reported in patent publication US10577373B2, “TYK2 inhibitors and uses thereof” (Nimbus Lakshmi, Inc., priority 2017, dated 2020).
Like-named read-outs stand apart in the source and are kept apart here.

What was measured:
[1] = target: human TYK2 (JH2 domain-pseudokinase) (Homo sapiens (Human), UniProt P29597); assay: TYK2 JH2 Domain Binding Assay (KINOMEscan)
Protocol: Binding constants for compounds of the present invention against the JH2 domain were determined by the following protocol for a KINOMEscan® assay (DiscoveRx). A fusion protein of a partial length construct of human TYK2 (JH2 domain-pseudokinase) (amino acids G556 to D888 based on reference sequence NP_003322.3) and the DNA binding domain of NFkB was expressed in transiently transfected HEK293 cells. From these HEK 293 cells, extracts were prepared in M-PER extraction buffer (Pierce) in the presence of Protease Inhibitor Cocktail Complete (Roche) and Phosphatase Inhibitor Cocktail Set II (Merck) per manufacturers' instructions. The TYK2 (JH2 domain-pseudokinase) fusion protein was labeled with a chimeric double-stranded DNA tag containing the NFkB binding site (5′-[…]-3′) fused to an amplicon for qPCR readout, which was added directly to the expression extract (the final concentration of DNA-tag in the binding reaction is 0.1 nM).
The liganded beads were blocked with excess biotin and washed with blocking buffer (SeaBlock (Pierce), 1% BSA, 0.05% Tween 20, 1 mM DTT) to remove unbound ligand and to reduce nonspecific binding.
Extracts were used directly in binding assays without any enzyme purification steps at a ≥10,000-fold overall stock dilution (final DNA-tagged enzyme concentration<0.1 nM). Extracts were loaded with DNA-tag and diluted into the binding reaction in a two step process. First extracts were diluted 1:100 in 1× binding buffer (PBS/0.05% Tween 20/10 mM DTT/0.1% BSA/2 μg/ml sonicated salmon sperm DNA) containing 10 nM DNA-tag. This dilution was allowed to equilibrate at room temperature for 15 minutes and then subsequently diluted 1:100 in 1× binding buffer. […] Kds were determined using an 11-point 3-fold compound dilution series with three DMSO control points. […] The compounds were then diluted directly into the assays such that the final concentration of DMSO was 0.9%. All reactions performed in polypropylene 384-well plates. Each was a final volume of 0.02 mL. Assays were incubated with shaking for 1 hour at room temperature. Then the beads were pelleted and washed with wash buffer (lx PBS, 0.05% Tween 20) to remove displaced kinase and test compound. […] The qPCR protocol consisted of a 10 minute hot start at 95° C., followed by 35 cycles of 95° C. for 15 seconds, 60° C. for 1 minute.
Kds were determined using an 11-point 3-fold compound dilution series with three DMSO control points. […] The compounds were then diluted directly into the assays such that the final concentration of DMSO was 0.9%. The Kds were determined using a compound top concentration of 30,000 nM. Kd measurements were performed in duplicate.
Binding constants (Kds) were calculated with a standard dose-response curve using the Hill equation: […]
The Hill Slope was set to −1.

Tyk2 kinase domain (JH1) = Tyk2 kinase domain (JH1) (Homo sapiens (Human), UniProt P29597); assay: Tyk2 Radioactive Kinase Assay; assay type: biochemical; conditions: ATP 10 μM
Protocol: (§1) The Tyk2 and JAK2 radioactive kinase assay measures the percent inhibition at the Tyk2 kinase domain (JH1) and the percent inhibition at the JAK2 kinase domain (JH1). Results of the assay are expressed as percent inhibition at 10 μM.

JAK2 kinase domain (JH1) = JAK2 kinase domain (JH1) (Homo sapiens (Human), UniProt O60674); assay: JAK2 Radioactive Kinase Assay; assay type: biochemical; conditions: ATP 10 μM
Protocol: as §1

[2] = system: GM-CSF induced STAT5 phosphorylation mediated by the JAK2/JAK2 homdimeric complex; assay: GM-CSF Induced pSTAT5 in Human PBMC; conditions: GM-CSF 5 ng/mL for 20 minutes, pSTAT5
From the text: Human PBMC are isolated from buffy coat and are stored frozen for assays as needed.

[3] = system: IL-12 induced STAT4 phophorylation mediated by Tyk2/JAK2 (heterodimeric complex); assay: IL-12 Induced pSTAT4 in Human PBMC; assay type: cell-based; conditions: 1.7 ng/mL IL-12
From the text: The IL-12 Induced pSTAT4 assay evaluates the inhibition of IL-12 induced STAT4 phophorylation mediated by Tyk2/JAK2 (heterodimeric complex).

[4] = Homo sapiens, PBMC, 20 min, read-out: PBMC_GMCSF_pSTAT5 IC50, human PBMC

Chain of human TYK2 (JH2 domain-pseudokinase) (P29597 556-888): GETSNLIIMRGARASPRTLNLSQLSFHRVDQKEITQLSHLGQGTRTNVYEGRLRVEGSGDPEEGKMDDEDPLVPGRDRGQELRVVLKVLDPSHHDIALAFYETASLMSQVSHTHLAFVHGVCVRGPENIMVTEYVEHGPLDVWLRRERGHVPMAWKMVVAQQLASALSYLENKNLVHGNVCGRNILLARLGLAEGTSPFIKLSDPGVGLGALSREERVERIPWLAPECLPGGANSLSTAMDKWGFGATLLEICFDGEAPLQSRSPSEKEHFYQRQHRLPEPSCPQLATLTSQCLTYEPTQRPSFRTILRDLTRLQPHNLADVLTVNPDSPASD
Chain of Tyk2 kinase domain (JH1) (P29597 897-1176): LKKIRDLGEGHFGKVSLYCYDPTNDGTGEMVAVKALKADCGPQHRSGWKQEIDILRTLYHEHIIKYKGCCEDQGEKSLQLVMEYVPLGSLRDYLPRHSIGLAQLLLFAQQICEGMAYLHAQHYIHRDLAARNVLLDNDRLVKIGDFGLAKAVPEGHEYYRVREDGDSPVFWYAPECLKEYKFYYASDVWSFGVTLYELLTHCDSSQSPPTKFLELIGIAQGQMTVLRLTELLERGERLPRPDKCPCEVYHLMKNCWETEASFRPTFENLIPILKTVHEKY
Chain of JAK2 kinase domain (JH1) (O60674 849-1124): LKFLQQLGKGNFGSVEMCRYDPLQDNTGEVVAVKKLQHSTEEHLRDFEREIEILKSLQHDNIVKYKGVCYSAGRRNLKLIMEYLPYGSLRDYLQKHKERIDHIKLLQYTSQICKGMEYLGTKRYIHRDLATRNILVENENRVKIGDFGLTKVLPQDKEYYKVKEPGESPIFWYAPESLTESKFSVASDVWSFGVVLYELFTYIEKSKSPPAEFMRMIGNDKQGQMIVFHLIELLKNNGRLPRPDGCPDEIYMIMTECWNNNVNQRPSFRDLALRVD

Structure (SMILES) | Kd [1] [nM] | IC50 [2, 4] [nM] | IC50 [3] [nM] | also measured
[2H]C([2H])([2H])Oc1ncccc1Nc1cc(NC)n2ncc(C(=O)N[C@H]3[C@@H]4COC[C@@H]43)c2n1 [I-447] | < 0.2 | – | – | –
CNc1cc(Nc2cccnc2OC2CC2)nc2c(C(=O)NC3CC4(COC4)C3)cnn12 [I-433] | – | – | – | inhibition at 10 µM (Tyk2 kinase domain (JH1); compound at 10 μM): < 50%; inhibition at 10 µM (JAK2 kinase domain (JH1); compound at 10 μM): 50 to 70%
CNc1cc(-c2cn([C@H]3CCN(CCF)C3)c3cnccc23)nc2c(C(=O)NC3CC3)cnn12 [I-1363] | 0.2 to 1 | – | – | –
CNc1cc(Nc2cccc([C@@H]3CCCOC3)n2)nc2c(C(=O)N[C@H]3CC[C@H]3O)cnn12 [I-645] | 1 to 10 | – | – | –
CNc1cc(-c2cn([C@H]3CCN(CCF)C3)c3cnccc23)nc2c(C(=O)N[C@@H]3C[C@@H]3F)cnn12 [I-1362] | 0.2 to 1 | – | < 100 | –
CNc1cc(Nc2cccn(C(C)C)c2=O)cc2c(C(=O)N[C@H]3CC[C@@]3(C)O)cnn12 [I-1371] | < 0.2 | – | – | –
CNc1cc(C2=CN(C(C)C)C3N=CC(F)=CC23)nc2c(C(=O)N[C@H]3CC[C@H]3O)cnn12 (stereo partly drawn) [I-1387] | 1 to 10 | – | < 100 | –
CNc1cc(-c2cn(C3CC3)c3ncccc23)nc2c(C(=O)N[C@@H]3CC[C@H]3OC)cnn12 [I-1324] | < 0.2 | – | – | –
CNc1cc(Nc2cccc(N3CCOC4(CCOC4)C3)n2)nc2c(C(=O)NC3CC3)cnn12 (stereo not drawn) [I-744] | – | – | – | inhibition at 10 µM (Tyk2 kinase domain (JH1); compound at 10 μM): < 50%; inhibition at 10 µM (JAK2 kinase domain (JH1); compound at 10 μM): < 50%
CNc1cc(Nc2cccn(-c3cccc(C)n3)c2=O)nc2c(C(=O)NC3CC3)cnn12 [I-237] | – | – | – | Tyk2 JH1% Inhibition @ 10 μM (Tyk2 kinase domain (JH1); 10 μM compound): A (percent inhibition at 10 μM lower than 50); JAK2 JH1% Inhibition @ 10 μM (JAK2 kinase domain (JH1); 10 μM compound): A (percent inhibition at 10 μM lower than 50)
CNc1cc(-c2cn(C(C)C)c3ncccc23)nc2c(C(=O)N[C@H]3CC[C@@H]3O)cnn12 [I-639] | – | – | < 100 | IC50 ([2]; read-out: PBMC_GMCSF_pSTAT5 IC50, human PBMC): > 12500 nM
CNc1cc(C2=CN(C(C)C)C3N=CC(F)=CC23)nc2c(C(=O)N[C@@H]3CC[C@@H]3O)cnn12 (stereo partly drawn) [I-1386] | 1 to 10 | – | – | –
CNc1cc(-c2cn(CCN3CCCCC3)c3ncccc23)nc2c(C(=O)N[C@@H]3CC[C@H]3O)cnn12 [I-837] | – | > 12500 | < 100 | –
CNc1cc(Nc2cc(F)cn(C3CCOCC3)c2=O)nc2c(C(=O)NCC(C)(C)CO)cnn12 [I-529] | – | – | – | inhibition at 10 µM (Tyk2 kinase domain (JH1); compound at 10 μM): < 50%; inhibition at 10 µM (JAK2 kinase domain (JH1); compound at 10 μM): < 50%
[2H]C([2H])([2H])Oc1ncccc1Nc1cc(NC)n2ncc(C(=O)N[C@@H]3CCC[C@@H](O)C3)c2n1 [I-499] | – | > 50000 | < 100 | –
CNc1cc(-c2cn(C(C)C)c3ncccc23)nc2c(C(=O)N[C@@H]3CC[C@H]3O)cnn12 [I-640] | – | > 12500 | < 100 | –

Further lines, with some results ahead:

Kd [1] [nM] | IC50 [2, 4] [nM] | IC50 [3] [nM] | Structure (SMILES) | also measured
< 0.2 | – | – | CNc1cc(Nc2cccn(-c3cnc(C(=O)N(C)C)cn3)c2=O)nc2c(C(N)=O)cnn12 [I-53, 5-((1-(5-(dimethylcarbamoyl)pyrazin-2-yl)-2-oxo-1,2-dihydropyridin-3-yl)amino)-7-(methylamino)pyrazolo[1,5-a]pyrimidine-3-carboxamide] | inhibition at 10 µM (Tyk2 kinase domain (JH1); 10 μM compound): < 50%; inhibition at 10 µM (JAK2 kinase domain (JH1); 10 μM compound): < 50%
< 0.2 | > 50000 | < 100 | CNc1cc(Nc2cccn([C@H]3CCCC[C@H]3O)c2=O)nc2c(C(=O)N[C@@H]3C[C@@H]3F)cnn12 [I-988, N-((1R,2S)-2-fluorocyclopropyl)-5-((1-((1S,2R)-2-hydroxycyclohexyl)-2-oxo-1,2-dihydropyridin-3-yl)amino)-7-(methylamino)pyrazolo[1,5-a]pyrimidine-3-carboxamide] | inhibition at 10 µM (Tyk2 kinase domain (JH1); 10 μM compound): < 50%; inhibition at 10 µM (JAK2 kinase domain (JH1); 10 μM compound): < 50%
– | > 2500 | < 100 | CNc1cc(Nc2cccn(-c3ncc(C)s3)c2=O)nc2c(C(=O)NC3CCC3)cnn12 [I-263] | –
– | > 2500 | < 100 | CNc1cc(Nc2cccc3ocnc23)nc2c(C(=O)NCC(C)(C)CO)cnn12 [I-750] | –
– | > 50000 | < 100 | CNc1cc(Nc2cccn(C(C)C)c2=O)nc2c(C(=O)N[C@@H]3CC[C@H]3O)cnn12 [I-918] | –
– | > 2500 | < 100 | CNc1cc(Nc2cccc([C@@H]3CCCOC3)n2)nc2c(C(=O)N[C@H]3CC[C@@H]3O)cnn12 [I-603] | –
– | > 50000 | < 100 | CNc1cc(Nc2cccn(-c3cccc(C(C)(C)O)n3)c2=O)nc2c(C(=O)N[C@H]3C[C@H]3F)cnn12 [I-123] | –
– | > 12500 | < 100 | CNc1cc(Nc2cccn(-c3cc(C)nn3C)c2=O)nc2c(C(=O)NC3CCC3)cnn12 [I-342] | –
– | > 2500 | < 100 | CNc1cc(Nc2cccn(-c3ncc(C)s3)c2=O)nc2c(C(=O)N[C@H]3C[C@H]3F)cnn12 [I-262] | –
– | > 50000 | < 100 | CNc1cc(Nc2cc(F)cn([C@H]3CCCOC3)c2=O)nc2c(C(=O)N[C@H]3C[C@H]3F)cnn12 [I-559] | –
– | > 12500 | < 100 | CNc1cc(Nc2cccn(-c3ccnc(C)n3)c2=O)nc2c(C(=O)N[C@@H]3C[C@@H]3F)cnn12 (stereo in doubt) [I-124, N-((1R,2S)-2-fluorocyclopropyl)-7-(methylamino)-5-((1-(2-methylpyrimidin-4-yl)-2-oxo-1,2-dihydropyridin-3-yl)amino)pyrazolo[1,5-a]pyrimidine-3-carboxamide] | –
– | > 50000 | < 100 | CNc1cc(Nc2cc(Cl)cn(-c3cnn(C4CC4)c3C)c2=O)nc2c(C(=O)N[C@H]3C[C@H]3F)cnn12 [I-326] | –
– | > 12500 | < 100 | CNc1cc(Nc2cccc3ocnc23)nc2c(C(=O)NC3CC3)cnn12 [I-591] | –
– | > 50000 | < 100 | CNc1cc(Nc2cccnc2OC2CC2)nc2c(C(=O)N[C@H]3C[C@H]3F)cnn12 [I-217] | –
0.2 to 1 | – | – | CNc1cc(Nc2cccn(-c3ccccn3)c2=O)nc2c(C(=O)N[C@@H]3CC[C@H]3COC)cnn12 [I-1232] | –
< 0.2 | > 50000 | < 100 | CNc1cc(Nc2cc(Cl)cn(C3CCOCC3)c2=O)nc2c(C(=O)NCC(C)(C)CO)cnn12 [I-694] | inhibition at 10 µM (Tyk2 kinase domain (JH1); compound at 10 μM): < 50%; inhibition at 10 µM (JAK2 kinase domain (JH1); compound at 10 μM): < 50%
– | > 12500 | < 100 | CNc1cc(Nc2cccnc2OC2CC2)nc2c(C(=O)N[C@@H]3CC[C@@H]3O)cnn12 [I-401] | –
